Experimental findings from the METLIN SMRT retention time set (Domingo-Almenara et al. 2019) are described below.

This data set in a line: gradient 5% acetonitrile 3 min, to 50% in 2 min, to 85% in 15 min, held 3 min, 100 µL/min. Particulars: column: Zorbax Extend-C18 2.1 x 50 mm; eluents: water / acetonitrile, 0.1% formic acid. The procedure, abridged:
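Data were gathered over 3 months by HPLC coupled to a quadrupole time-of-flight mass spectrometer, operated in positive and negative ionization mode. Mixtures of ~100 pure standards ran on a Zorbax Extend-C18 column (2.1 × 50 mm, 1.8 μm) at 100 μL/min, with water and acetonitrile each containing 0.1% formic acid and dead and dwell volumes of 40 μL and 900 μL. Retention time was read from adduct peaks picked by computer and checked manually.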
With `CC(C)c1ccc(S(=O)(=O)N2CCc3c(c(CN4CCCC4)nn3C)C2)cc1`, the RP-LC retention time was 721 s.
As for `O=C(NCCC1=CCCCC1)C1CC(=O)N(C2CCCCCC2)C1` (centres undefined), the figure is 906 s; as for `CC1CCN(c2nc(-c3ccc([N+](=O)[O-])cc3)nc3ccccc23)CC1`, 1030 s.
`Cc1nnc(-c2coc(S(=O)(=O)N3CCCCCC3)c2)o1` registered an RP-LC retention time of 824 s.
Under `O=C(Cc1csc(NC(=O)c2ncccn2)n1)Nc1nc2ccccc2s1` stands 670 s; under `Cc1sc(NC(=O)COc2ccc(Cl)cc2)nc1-c1ccc2c(c1)NC(=O)CO2`, 873 s.
Under `CC(C)c1noc(C2(NC(=O)c3ccc(Cl)cc3)CCCCC2)n1` stands 1100 s.
As for `CCC(=O)Nc1nc(-c2ccc3c(c2)N(CC)C(=O)CO3)cs1`, the figure is 752 s; as for `COCCN1CCC(N2CCN(C(=O)C3(c4ccccc4)CC3)CC2)C1=O` (centres undefined), 542 s.
`Cc1ccc(NC(=O)Cn2nc(C)cc2C(=O)Nc2ccc3c(c2)OCO3)cc1` gave an RP-LC retention time of 866 s.
Under `Cc1cccc(-c2ncccc2CNS(=O)(=O)c2ccccc2)c1` stands 677 s; under `Cc1cc(N2CCOCC2)n2nc(CN3CCN(c4ccccc4)CC3)nc2n1`, 588 s; under `Cc1cccc(NC(=O)C2CCN(S(=O)(=O)c3ccc4c(c3)NC(=O)C(C)O4)CC2)c1C` (centres undefined), 818 s.
Under `CC1CCCCN1CCCNC(=O)c1cc(S(=O)(=O)N2CCCC2)ccc1Cl` (centres undefined) stands 643 s.
As for `O=C(Nc1ccc2c(c1)OCCO2)C1CCCN(C(=O)c2ccc(Cl)cc2)C1` (centres undefined), the figure is 815 s.
On to `CS(=O)(=O)c1ccc2nc(NC(=O)CN3C(=O)CCC3=O)sc2c1`, for which the RP-LC retention time worked out at 582 s.
As for `CC(C)c1cc(C(=O)Nc2ccc(F)c(F)c2)nc2ccnn12`, the figure is 1180 s; as for `Cc1ccccc1NC(=O)C1CC(=O)N(c2ccc3c(c2)CCN3C(=O)C2CCC2)C1` (centres undefined), 803 s.
`Cc1onc(-c2ccccc2)c1C(=O)NC1C(=O)N2C1SC(C)(C)C2C(=O)O` (centres undefined) came in with an RP-LC retention time of 818 s.
As for `O=C(NCc1ccccc1Cl)c1cn2c(n1)COCC2`, the figure is 665 s.
Under `Cc1cnnn1-c1ccc(C(=O)Nc2nccs2)cc1` stands 623 s; under `Cc1cccc(N2CCN(C(=O)Cn3ccc4ccc(N5CCOCC5)nc43)CC2)c1C`, 1110 s; under `Cc1ccc(NS(=O)(=O)c2ccc3c4c(cccc24)C(=O)N3)c(C)c1`, 751 s.
Regarding `COCC(=O)N1CCCc2ccc(NC(=O)C3CC(=O)N(c4ccc(F)cc4)C3)cc21` (centres undefined), the RP-LC retention time was 681 s.
Under `C=CCN1C(=O)COc2ccc(-c3nc(NC(=O)c4ccncc4)sc3C)cc21` stands 810 s.
Under `O=C(c1ccccc1OCC1CCCN(C2CCCCC2)C1)N1CCCCC1` (centres undefined) stands 594 s; under `O=C1NC(C(=O)Nc2ccc3c(c2)OCCO3)Cn2cccc21` (centres undefined), 643 s; under `CN(C)c1ccc(/C=C2\Cc3ccccc3C2=O)cc1Br`, 1170 s.
Under `O=C(CC1CCN(C(=O)C2CCCCC2)CC1)NCCc1c[nH]c2ccc(Cl)cc12` stands 871 s.
As to `O=C(Cn1c(=O)c2nncn2c2ncccc21)N1CCN(c2ccc(Cl)cc2)CC1`, the RP-LC retention time was 744 s.
As for `O=C1NC(C(=O)NCC2CCCCC2)Cn2cccc21` (centres undefined), the figure is 681 s; as for `O=C(Cn1cccc1-c1nc(-c2ccccc2)cs1)N1CCOCC1`, 934 s; as for `CCN1c2ccccc2C(=O)NC12CCN(C(=O)c1ccccc1F)CC2`, 749 s.
As for `O=C1NCCCCCN(C(=O)Nc2ccccc2F)[C@H]2CCC[C@@H]12`, the figure is 734 s.
Under `CC(C)n1cnc2cc(CNC(=O)CCc3ccccc3)ccc21` stands 631 s.
For `O=C(NCCN1CCCCC1)C1CCc2sc(C(=O)N3CCOCC3)cc2C1` (centres undefined), the RP-LC retention time stood at 581 s.
As for `Cc1cc(C)n(-c2cc(N3CCCC3)ncn2)n1`, the figure is 764 s; as for `O=C(c1ccco1)N1CCN(C(=O)c2c3c(nc4ccccc24)C(=O)N(C2CCCCC2)C3)CC1`, 727 s.
As for `CCN(CC)S(=O)(=O)c1cccc(-c2nnc(-c3cccc(C)c3)o2)c1`, the figure is 1120 s; as for `COc1ccc(OC)c(NC(=O)C2CCN(S(=O)(=O)c3cn(C(C)C)cn3)CC2)c1`, 778 s; as for `CCCNC(=O)Nc1ccc(NC(=O)N2CCC(C(=O)NCC)CC2)cc1`, 588 s.
As for `COc1ccc(OC)c(CNC(=O)CCC2CCN(S(=O)(=O)c3ccccc3)CC2)c1`, the figure is 875 s; as for `Cc1cc2n(n1)CCC(=O)N2CCCC(=O)NCCc1ccccc1`, 666 s.
In turn, `Cc1cc(NC(=O)CC(=O)Nc2ccc3nc4n(c(=O)c3c2)CCCCC4)no1` displayed an RP-LC retention time of 636 s.
As for `CCOC(=O)c1[nH]c(C)c(CN(Cc2ccco2)C(=O)Cc2ccccc2)c1C`, the figure is 977 s; as for `COc1ccc(NC(=O)c2c(O)c3cccnc3n(-c3cccc(F)c3)c2=O)cc1`, 1190 s; as for `COc1ccc(-c2csc3c(=O)n(CC(=O)NCc4ccco4)cnc23)cc1`, 764 s.
Under `CC1=C(c2ccccc2)S(=O)(=O)N=C1N1CCCN(C(=O)CC(C)C)CC1` stands 803 s; under `COc1ccc(N2CC(c3nc(-c4ccc(Cl)cc4)no3)CC2=O)c(OC)c1` (centres undefined), 1000 s; under `Nc1c(C(=O)Nc2cc(F)ccc2F)nnn1-c1ccccc1`, 989 s.
Under `CCc1nnc2ccc(-c3noc(-c4cc(F)ccc4F)n3)cn12` stands 896 s.
For `CCOC(=O)c1cnc2c(C)cc(C)cc2c1NCCCN(C)C`, the RP-LC retention time stood at 565 s.
Under `O=c1c2ccccc2n(Cc2nc(-c3cccc(C(F)(F)F)c3)no2)c(=O)n1CC1CCCO1` (centres undefined) stands 1100 s; under `CC(C)NC(=O)c1ccc2c(c1)NC(=O)C1CCCCN21` (centres undefined), 692 s; under `CC(=O)N1CCc2ccc(NC(=O)Nc3ccccc3Cl)cc21`, 755 s.
Under `COc1ccccc1Cc1nc(-c2cn(-c3cccc(F)c3)nn2)no1` stands 1040 s; under `COc1ccc(NC(=O)c2cccn2Cc2noc(C)n2)cc1Cl`, 859 s.
As for `O=C(C1COc2ccccc2O1)N1CCCC(c2nnc(-c3ccccc3F)s2)C1` (centres undefined), the figure is 922 s; as for `O=C(C1CCCN(c2cnc3nccnc3c2)C1)N1CCN(c2ccc(F)cc2)CC1` (centres undefined), 746 s; as for `COc1ccc(NC(=O)Cn2c(=O)c3cc(C)nn3c3ncccc32)c(OC)c1`, 694 s.
Turning to `CCN(CC)C(=O)c1ccc(-c2nc3cc(NS(=O)(=O)c4ccc(F)c(C)c4)ccc3n2C)cc1`, the RP-LC retention time came out at 722 s.
As for `O=C1/C(=C/c2ccccc2)C[C@@]2(O)[C@H]3Cc4ccc(O)c5c4[C@@]2(CCN3CC2CC2)[C@H]1O5`, the figure is 724 s; as for `CCc1noc(-c2cnc3nc(C)ccc3c2NCc2ccccc2OC)n1`, 724 s; as for `CCOC(=O)c1c(C)n(-c2ccc(OC)cc2)c2ccc(OCC(N)=O)cc12`, 909 s.
Under `Cc1ccc([N+](=O)[O-])cc1NC(=O)c1cccc([N+](=O)[O-])c1O` stands 913 s.
As for `Cc1cccc(Nc2nc3ccncc3n(Cc3ccccc3)c2=O)c1`, the figure is 673 s.
`O=C(NCC(c1cccnc1)N1CCc2ccccc21)C(=O)Nc1ccc2c(c1)OCO2` (centres undefined) displayed an RP-LC retention time of 734 s.
Under `CCNC(=O)C1CCCN(c2nc3ncn(CC(=O)Nc4ccccc4F)c(=O)c3s2)C1` (centres undefined) stands 647 s.
Under `O=C(Nc1cccc2nsnc12)C1CCN(S(=O)(=O)N2CCCC2)CC1` stands 862 s; under `CC(C)Cn1c(=O)c(N2CCN(C(=O)Nc3ccccc3)CC2)nc2ccncc21`, 577 s.
Under `CC(=O)c1cccc(C(=O)N2CCC3(CC2)N=C(c2ccc(C)cc2)NO3)c1` stands 772 s; under `Cc1ccc2[nH]cc(CCN3CC(C(=O)Nc4nnc(CC(C)(C)C)s4)CC3=O)c2c1` (centres undefined), 864 s.
As to `COc1ccc(NC(=O)c2cc3c(=O)n(CC(C)C)c4ccccc4n3n2)c(OC)c1`, the RP-LC retention time amounted to 1180 s.
As for `Cc1ccnc(Nc2nc(C)c(C(=O)N3CCC(C)CC3)s2)c1`, the figure is 779 s; as for `O=C(c1ccc(Br)cc1)N1CCN(c2nc(CN3CCCCC3)cs2)CC1`, 655 s.
In the case of `Cn1cc(-c2cc3n(n2)CCC(=O)N3CCCC(=O)Nc2ccc(F)cc2F)c2ccccc21`, the RP-LC retention time was found to be 860 s.
Under `Cn1cnc(S(=O)(=O)N2CCCN(S(=O)(=O)Cc3ccccc3)CCNC(=O)CC2c2ccccc2)c1` (centres undefined) stands 711 s.
In turn, `CN(C)c1ccc(CNC(=O)c2cc3n(n2)CC(C)(C(=O)NCc2ccccc2)N(C)C3=O)cc1` (centres undefined) registered an RP-LC retention time of 607 s.
As for `C=CCN1C(=O)COc2ccc(-c3csc(NC(=O)C4CC4)n3)cc21`, the RP-LC retention time came to 842 s.
